The values below come from patent US7179812B2, “Diazine derivatives” (Hoffmann-la Roche Inc., priority 2005, dated 2007).

This test deals with T1, HER2 (Homo sapiens, UniProt P04626).
T1 construct: endogenous in cells; host or cells: Calu3 tumor cell line
T1 sequence (P04626 23-1255): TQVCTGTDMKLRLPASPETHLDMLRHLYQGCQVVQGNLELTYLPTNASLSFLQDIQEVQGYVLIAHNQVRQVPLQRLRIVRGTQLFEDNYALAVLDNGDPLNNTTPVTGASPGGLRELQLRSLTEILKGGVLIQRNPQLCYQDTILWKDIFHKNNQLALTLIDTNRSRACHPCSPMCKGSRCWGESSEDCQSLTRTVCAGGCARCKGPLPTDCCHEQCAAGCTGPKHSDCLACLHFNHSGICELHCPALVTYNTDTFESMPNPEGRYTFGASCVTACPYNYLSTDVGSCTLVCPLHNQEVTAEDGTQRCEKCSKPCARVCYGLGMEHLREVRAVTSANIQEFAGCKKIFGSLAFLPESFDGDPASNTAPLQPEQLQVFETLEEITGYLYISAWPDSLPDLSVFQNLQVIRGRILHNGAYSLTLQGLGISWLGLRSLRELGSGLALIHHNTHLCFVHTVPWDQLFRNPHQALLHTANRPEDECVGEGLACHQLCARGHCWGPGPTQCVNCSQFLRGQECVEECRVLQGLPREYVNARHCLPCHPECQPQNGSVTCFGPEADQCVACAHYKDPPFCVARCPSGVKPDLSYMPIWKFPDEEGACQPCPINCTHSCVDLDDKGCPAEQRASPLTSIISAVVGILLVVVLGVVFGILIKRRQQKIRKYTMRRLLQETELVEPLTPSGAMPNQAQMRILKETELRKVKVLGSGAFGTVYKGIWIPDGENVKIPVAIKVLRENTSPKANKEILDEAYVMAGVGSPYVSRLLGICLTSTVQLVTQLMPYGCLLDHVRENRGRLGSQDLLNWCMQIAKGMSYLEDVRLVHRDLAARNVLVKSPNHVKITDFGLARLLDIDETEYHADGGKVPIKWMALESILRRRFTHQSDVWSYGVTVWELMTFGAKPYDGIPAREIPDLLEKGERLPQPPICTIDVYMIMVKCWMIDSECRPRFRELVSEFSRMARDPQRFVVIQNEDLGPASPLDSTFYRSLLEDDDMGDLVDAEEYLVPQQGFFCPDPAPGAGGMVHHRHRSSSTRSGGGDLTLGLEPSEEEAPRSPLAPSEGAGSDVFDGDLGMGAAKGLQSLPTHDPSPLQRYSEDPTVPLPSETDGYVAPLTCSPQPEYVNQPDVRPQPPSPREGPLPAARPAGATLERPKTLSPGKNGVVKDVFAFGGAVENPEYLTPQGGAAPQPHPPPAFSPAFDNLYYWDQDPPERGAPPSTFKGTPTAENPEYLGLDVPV
Description: Inhibition of HER2 phosphorylation in Calu3 tumor cell line. The test is classed as cell-based. Particulars: Calu-3; compound concentration 1 μM; Calu3 cells, 16 h incubation; pY 1248 in HER2; percentage of the DMSO treated control; read-out: Percent inhibition of HER2-phosphorylation. The procedure:
Inhibition of HER2 Phosphorylation in Calu3 Tumor Cell Line
2×10^5 Calu3 cells per well were plated in a 12-well plate. After 4 days cells were starved for 16 h in DMEM(Dulbecco's Modified Eagle Medium)/0.5% FCS(Fetal Calf Serum)/1% Glutamine. During this time cells were incubated with 1 μM of the compound. Afterwards cells were lysed in lyses buffer containing 1% Triton, 10% Glycerol, 1 mM EGTA, 1.5 mM MgCl2, 150 mM NaCl, 50 mM Hepes pH 7.5, 1 mM PMSF, 10 μg/mL Aprotinin and […] Orthovanadate. Cell lysates were analyzed on a SDS PAGE and after transfer to a nitrocellulose membrane detected with an antibody specifically recognizing the pY 1248 in HER2. Inhibition of HER2 phosphorylation is calculated as percentage of the DMSO treated control. This percentage is calculated according to the following formula: Inhibition in %=100−(Phosphorylated-HER2-Signal of Test Sample*100/Phosphorylated-HER2-Signal DMSO-control).
As usually defined, the inhibition is the relative decrease from the control value, in per cent. For `FC(F)(F)c1ccc(C=Cc2nc(COc3cnc(CCCCn4ccnn4)cn3)co2)cc1` [example 7, 2-(4-[1,2,3]Triazol-1-yl-butyl)-5-{2-[2-(4-trifluoromethyl-phenyl)-vinyl]-oxazol-4-ylmethoxy}-pyrazine], the inhibition at 1 µM is 75.3%.
With `FC(F)(F)c1ccc(C=Cc2nc(COc3ccc(CCCCn4ccnn4)nn3)co2)cc1` [example 2, 3-(4-[1,2,3]Triazol-1-yl-butyl)-6-{2-[2-(4-trifluoromethyl-phenyl)-vinyl]-oxazol-4-ylmethoxy}-pyridazine], the inhibition at 1 µM came out at 79.8%.
In the case of `FC(F)(F)c1ccc(C=Cc2nc(COc3ncc(CCCCn4ccnn4)cn3)co2)cc1` [example 4, 5-(4-[1,2,3]Triazol-1-yl-butyl)-2-{2-[2-(4-trifluoromethyl-phenyl)-vinyl]-oxazol-4-ylmethoxy}-pyrimidine] it was 72.7%.
